Results: patent US9365584B2, “Thieno [2,3-B] pyridinedione activators of AMPK and therapeutic uses thereof” (Poxel, priority 2009, dated 2016)

test system: AMPK; experiment: AMPK enzyme activity assay (Delfia technology, AMARA peptide substrate); type: biochemical; details: compound at 30 μM vs AMP at 200 μM
Experimental: The following biological test allows the determination of the efficacy of compounds of formula (1) onto AMPK protein.
AMPK enzyme activities were assayed by using a Delfia technology. AMPK enzyme activities were carried out in microtiter plates in the presence of a synthetic peptide substrate (AMARAASAAALARRR, the “AMARA” peptide) and activators in serial dilutions. Reactions were initiated by the addition of AMPK. Enzyme activity was assayed by using an anti-phosphoserine antibody to measure the quantity of phosphate incorporated into the AMARAA.
No: Number of the molecule
Activity: Ratio between the % of control (basal activity) of compound of formula (1) at 30 μM and the % of control (basal activity) of AMP (natural substrate) at 200 μM.

| Activity: Ratio between the % of control (basal activity) of compound of formula (1) at 30 μM and the % of control (basal activity) of AMP (natural substrate) at 200 μM | Compound |
| --- | --- |
| A (0%<A<50%) | CCOc1ccc(C2(C)C(=O)Nc3scc(-c4ccc(C)c(F)c4O)c3C2=O)cc1 (centres unmarked) [No 23, 5-(4-ethoxyphenyl)-3-(3-fluoro-2-hydroxy-4-methyl-phenyl)-5-methyl-7H-thieno[2,3-b]pyridine-4,6-dione] |
| A (0%<A<50%) | COc1ccc(-c2c(Cl)sc3c2C(=O)C(C)(c2ccc(F)cc2)C(=O)N3)cc1 (centres unmarked) [No 39, 2-chloro-5-(4-fluorophenyl)-3-(4-methoxyphenyl)-5-methyl-7H-thieno[2,3-b]pyridine-4,6-dione] |
| A (0%<A<50%) | COc1ccc(-c2c(Cl)sc3c2C(=O)C(C)(c2ccc(OC)cc2)C(=O)N3)cc1 (centres unmarked) [No 86, 2-chloro-3,5-bis(4-methoxyphenyl)-5-methyl-7H-thieno[2,3-b]pyridine-4,6-dione] |
| C (C≧75%) | Cc1ccc(-c2c(Cl)sc3c2C(=O)C(F)(c2ccccc2)C(=O)N3)c(O)c1F (centres unmarked) [No 191, 2-chloro-5-fluoro-3-(3-fluoro-2-hydroxy-4-methyl-phenyl)-5-phenyl-7H-thieno[2,3-b]pyridine-4,6-dione] |
| A (0%<A<50%) | COc1cc(Br)ccc1-c1csc2c1C(=O)C(F)(c1ccccc1)C(=O)N2 (centres unmarked) [No 127, 3-(4-bromo-2-methoxy-phenyl)-5-fluoro-5-phenyl-7H-thieno[2,3-b]pyridine-4,6-dione] |
| C (C≧75%) | CC1(c2ccccc2)C(=O)Nc2sc(Cl)c(-c3cccc(F)c3)c2C1=O (centres unmarked) [No 29, 2-chloro-3-(3-fluorophenyl)-5-methyl-5-phenyl-7H-thieno[2,3-b]pyridine-4,6-dione] |
| A (0%<A<50%) | O=C1Nc2scc(-c3cccnc3)c2C(=O)C1(F)c1ccccc1 (centres unmarked) [No 214, 5-fluoro-5-phenyl-3-(3-pyridyl)-7H-thieno[2,3-b]pyridine-4,6-dione] |
| A (0%<A<50%) | CS(=O)(=O)c1cccc(C2(F)C(=O)Nc3sc(Cl)c(-c4ccccc4)c3C2=O)c1 (centres unmarked) [No 82, 2-chloro-5-fluoro-5-(3-methylsulfonylphenyl)-3-phenyl-7H-thieno[2,3-b]pyridine-4,6-dione] |
| C (C≧75%) | O=C1Nc2sc(Cl)c(-c3cccc(F)c3)c2C(=O)C1(F)c1cccnc1 (centres unmarked) [No 212, 2-chloro-5-fluoro-3-(3-fluorophenyl)-5-(3-pyridyl)-7H-thieno[2,3-b]pyridine-4,6-dione] |
| B (50%≦B<75%) | COc1ccc(-c2c(F)sc3c2C(=O)C(F)(c2ccc(F)cc2)C(=O)N3)cc1 (centres unmarked) [No 200, 2,5-difluoro-5-(4-fluorophenyl)-3-(4-methoxyphenyl)-7H-thieno[2,3-b]pyridine-4,6-dione] |
| A (0%<A<50%) | COc1c(-c2c(Cl)sc3c2C(=O)C(F)(c2ccccc2)C(=O)N3)ccc(F)c1C (centres unmarked) [No 229, 2-chloro-5-fluoro-3-(4-fluoro-2-methoxy-3-methyl-phenyl)-5-phenyl-7H-thieno[2,3-b]pyridine-4,6-dione] |
| B (50%≦B<75%) | Cc1ccc(-c2c(Cl)sc3c2C(=O)C(C)(c2ccc(F)cc2)C(=O)N3)cc1 (centres unmarked) [No 57, 2-chloro-5-(4-fluorophenyl)-5-methyl-3-(p-tolyl)-7H-thieno[2,3-b]pyridine-4,6-dione] |
| A (0%<A<50%) | COc1ccc(-c2c(Cl)sc3c2C(=O)C(C)(c2cccc(C)c2)C(=O)N3)cc1 (centres unmarked) [No 87, 2-chloro-3-(4-methoxyphenyl)-5-methyl-5-(m-tolyl)-7H-thieno[2,3-b]pyridine-4,6-dione] |
| A (0%<A<50%) | O=C1Nc2scc(-c3ccc(C(F)(F)F)cc3)c2C(=O)C1(F)c1ccccc1 (centres unmarked) [No 135, 5-fluoro-5-phenyl-3-[4-(trifluoromethyl)phenyl]-7H-thieno[2,3-b]pyridine-4,6-dione] |
| A (0%<A<50%) | CC(C)(C)c1ccc(-c2c(Cl)sc3c2C(=O)C(F)(c2ccccc2)C(=O)N3)cc1 (centres unmarked) [No 143, 3-(4-tert-butylphenyl)-2-chloro-5-fluoro-5-phenyl-7H-thieno[2,3-b]pyridine-4,6-dione] |
| A (0%<A<50%) | CS(=O)(=O)c1cccc(-c2csc3c2C(=O)C(F)(c2ccccc2)C(=O)N3)c1 (centres unmarked) [No 120, 5-fluoro-3-(3-methylsulfonylphenyl)-5-phenyl-7H-thieno[2,3-b]pyridine-4,6-dione] |
| C (C≧75%) | CC1(c2cccc(S(C)(=O)=O)c2)C(=O)Nc2sc(Cl)c(-c3ccc(F)cc3)c2C1=O (centres unmarked) [No 64, 2-chloro-3-(4-fluorophenyl)-5-methyl-5-(3-methyl-sulfonylphenyl)-7H-thieno[2,3-b]pyridine-4,6-dione] |
| C (C≧75%) | Cc1ccc(-c2csc3c2C(=O)C(F)(c2ccccc2)C(=O)N3)cc1O (centres unmarked) [No 115, 5-fluoro-3-(3-hydroxy-4-methyl-phenyl)-5-phenyl-7H-thieno[2,3-b]pyridine-4,6-dione] |
| A (0%<A<50%) | Cc1ccc(-c2c(Cl)sc3c2C(=O)C(C)(c2ccccc2)C(=O)N3)cc1 (centres unmarked) [No 34, 2-chloro-5-methyl-5-phenyl-3-(p-tolyl)-7H-thieno[2,3-b]pyridine-4,6-dione] |
| A (0%<A<50%) | CC1(c2ccc(O)cc2)C(=O)Nc2sc(Cl)c(-c3ccccc3)c2C1=O (centres unmarked) [No 140, 2-chloro-5-(4-hydroxyphenyl)-5-methyl-3-phenyl-7H-thieno[2,3-b]pyridine-4,6-dione] |
| C (C≧75%) | COc1cc(C)ccc1-c1c(F)sc2c1C(=O)C(F)(c1cccc(C#N)c1)C(=O)N2 (centres unmarked) [No 111, 3-[2,5-difluoro-3-(2-methoxy-4-methyl-phenyl)-4,6-dioxo-7H-thieno[2,3-b]pyridin-5-yl]benzonitrile] |

| Compound | Activity: Ratio between the % of control (basal activity) of compound of formula (1) at 30 μM and the % of control (basal activity) of AMP (natural substrate) at 200 μM |
| --- | --- |
| 2,5-difluoro-3-(2-naphthyl)-5-phenyl-7H-thieno[2,3-b]pyridine-4,6-dione [No 162] | C (C≧75%) |

same assay, conditions: compound at 30 μM vs AMP at 200 μM; listed as 5

| Activity: Ratio between the % of control (basal activity) of compound of formula (1) at 30 μM and the % of control (basal activity) of AMP (natural substrate) at 200 μM | Compound |
| --- | --- |
| A (0%<A<50%) | COc1cc(C)ccc1-c1c(F)sc2c1C(=O)C(F)(c1cccc(C#N)c1)C(=O)N2 (centres unmarked) [No 111, 3-[2,5-difluoro-3-(2-methoxy-4-methyl-phenyl)-4,6-dioxo-7H-thieno[2,3-b]pyridin-5-yl]benzonitrile] |
